The values that follow come from publication PMC7249060, “The Antiproliferative Effects of Flavonoid MAO Inhibitors on Prostate Cancer Cells” (Molecules, 2020).

Each structure is given as a SMILES string. Bounds are passed on as bounds.

The target of experiment [1] is T1, hMAO-A (Homo sapiens, UniProt P21397).
T1 construct: purchased Sigma-Aldrich Co. (St. Louis, MO, USA)
T1 sequence (P21397 1-527): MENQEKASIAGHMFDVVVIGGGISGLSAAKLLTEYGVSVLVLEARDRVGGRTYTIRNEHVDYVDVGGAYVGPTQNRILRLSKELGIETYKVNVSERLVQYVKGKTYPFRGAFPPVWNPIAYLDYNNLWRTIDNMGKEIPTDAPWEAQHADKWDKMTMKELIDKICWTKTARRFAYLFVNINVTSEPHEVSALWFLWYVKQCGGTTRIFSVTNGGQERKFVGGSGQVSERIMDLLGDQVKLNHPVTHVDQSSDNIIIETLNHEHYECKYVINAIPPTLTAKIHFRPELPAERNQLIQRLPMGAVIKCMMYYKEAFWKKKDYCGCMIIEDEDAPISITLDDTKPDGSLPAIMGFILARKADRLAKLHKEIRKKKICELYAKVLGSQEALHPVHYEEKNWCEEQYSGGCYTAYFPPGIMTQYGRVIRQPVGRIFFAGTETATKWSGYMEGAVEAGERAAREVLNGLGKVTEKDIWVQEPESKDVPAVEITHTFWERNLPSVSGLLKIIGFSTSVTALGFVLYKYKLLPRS
The experiment can be described thus: MAO-Glow luminescence screen of KKRs at 100 μM. Type of experiment: biochemical. To be noted: from screen at 100 μM, 37 °C, 60 min, LDS 40 μM. On the procedure: We optimized our control hMAO-A and hMAO-B isozymes reactions in the incubation condition, at 37 °C for 1 h, by performing a luminescence assay using the MAO-Glow™ kit. Upon arrival, each isozyme was diluted with 10 mM HEPES in cold HBSS of pH 7.4. Afterward, the diluted isozymes were kept at −80 °C until use. Enzyme concentration optimization was accomplished by testing ten 2X serially diluted hMAO-A and hMAO-B concentrations for a final range of 7.00–0.01 U/mL each. The tested isozymes were incubated with LDS of 40 and 4 μM for isozymes A and B, respectively (recommended by Promega protocol), and a maximum of used DMSO of 1% final concentration. Different isozyme concentrations reactions at their initial velocities were monitored. Consequently, their required concentrations were defined to be 0.44 U/mL each. Additionally, ten different LDS concentrations, ranging from 0.3–150 μM, were monitored for optimizing and validating the linearity of the initial reaction for the hMAO-A mode of action. Subsequently, we chose a saturated substrate of 75 μM as a required concentration for the hMAO-A enzyme kinetic reactions.
(§1) The inhibitory effects of the synthesized KKRs of hMAO-A and B were tested by measuring the decrease in arbitrary light units (ALU) signal produced by the optimized isozymes using the MAO-Glow™ Assay at 37 °C. In this assay, DMSO stock for each KKR compound was diluted with a reaction buffer of pH 7.4 to make a 4X working solution for a maximum final concentration of 100 μM and ≤1% DMSO. The experiments were run in the absence and presence of 4X the miscellaneous standards of MAO-BIs (DEP, PARG, and SAF) and MAO-AIs (PIRL and CLORG), with similar concentrations. In white opaque 96-well microplates, 12.5 μL of each compound was plated at RT and was followed by 25 μL of 2X cold hMAO-A or hMAO-B, for a final concentration of 0.44 U/mL. A related buffer substituted each isozyme to make the blank wells and substituted each compound to make the negative control wells. Following this, we added 12.5 μL of 4X LDS to make a final substrate concentration of 40- and 4-μM for hMAO-A and hMAO-B, respectively. All screen plates were incubated at 37 °C for 60 min. The plates of 50 μL/well were then taken out from the incubator, and their reactions were stopped by an equal volume of 50 μL of reporter luciferin detection reagent (RLDR). After 30 min, the luminescence signals for all plates were read on a Synergy HTX Multi-reader from Bio-Tek (Winooski, VT, USA).

A further experiment has as its system DU145 cells. In words: Antiproliferation screen assay, resazurin, 72 h. Type of experiment: cell-based, human. The following applies: 50 μM. On the procedure:
(§2) In this screen, we examined the growth inhibitory effects of all synthesized KKRs on the three human PCa cell lines LNCaP, DU145, and PC3. The antiproliferative clinical drug TAX of 0.25 μM was used as a positive control. Additionally, different standards of MAO-Is and FLUT were tested for their effect on the LNCaP cells. Briefly, the procedures and materials used were the same as for the viability assay except for the following—cultured cells were seeded at 10,000 cells/175-µL/well related experimental media, and the resazurin solution was added after 72 h of incubation with the compounds of 50 μM each.
(In general: The colour change of resazurin is a common sign of viable cells or microbes.)

The subject of experiment [2] is LNCaP cells. The experiment can be described thus: Antiproliferation screen assay, resazurin, 72 h. In kind it is cell-based, human. To be noted: 50 μM. As for the experimental part:
as §2

The subject of experiment [3] is LNCaP cells. In words: cells. Type of experiment: cell-based, human. The following applies: for effect on LNCaP proliferation and cell morphology: 20 μM, five days, phase contrast; for viability at 20 µM: Homo sapiens, LNCaP, 120 h, read-out: percentage of treated group compared to the viable control. On the procedure:
The morphological alterations of the LNCaP cells were imaged, and their percentage proliferation rate was measured after five-days of incubation. The method of subculture and treatment were similar to our antiproliferation assay, with slight modifications. Briefly, the cells were seeded in transparent flat-bottom 96-well microplates with 10,000 cells/175 μL/well of […] experimental media. Following overnight incubation, 20 μM concentration level (~2 × IC50) for each of KKR11, 20, 7, 2A, 21, and the standard PIRL were added to the cells for a total volume of 200 μL/well and re-incubated for five-days. On the day of imaging, 20X phase-contrast images of lid-covered treated and control cells were captured using an inverted microscope. Resazurin was then added for viability detection, and the imaged cells in the wells were read after 4.5 h on the Bio-Tek Synergy HTX Multi-reader.

Experiment [4] deals with T1, hMAO-A. In words: MAO-Glow inhibitory potency (IC50) and relative selectivity. The following applies: for MAO isozyme selectivity: comparison of hMAO-A and hMAO-B IC50s; for IC50: mean ± SEM, at least two experiments, LDS 40 μM; for hMAO-A relative selectivity (RSA): RSA = hMAO-B IC50/hMAO-A IC50. Type of experiment: biochemical. On the procedure: as §1
The experiments were performed in the presence and absence of the standard PILR. In white opaque 96-well plates, each KKR compound was serially diluted with a reaction buffer of pH 7.4 at the highest possible maximum final concentration, and the least used DMSO (<2%). In blank wells, the related reaction buffer substituted the isozyme. In negative control wells, the reaction buffer substituted each compound concentration. Then, the procedure was carried out as mentioned above (Section 4.2.2), and the reaction was detected on the Bio-Tek Synergy HTX Multi-Reader. The IC50 of each KKR on both isozymes was determined and subsequently the RSA and RSB was calculated.
Statistical analyses were performed using the GraphPad Prism program (version 6.07 for Windows) from the GraphPad Prism Software Incorporated (San Diego, CA, USA). All data points and parameters were expressed as the mean ± SEM. All parameters were calculated from non-linear and linear regressions with the best R^2 values, no less than 93%. The inhibitory concentration of 50% of isozyme (IC50) of each compound was obtained by the interpolation of a normalized variable slope logarithmic curve. The RSA values of the selected compounds were calculated from their IC50 average means following the equation RSA = hMAO − B IC50/Hmao − A IC50(1)

For orientation: IC90 means the concentration at which the effect reaches the 90% level. Broadly, the IC50 is the concentration needed to halve the response being measured.

Turning to `COc1cc(O)c(C(=O)/C=C/c2ccc(Cl)c(Cl)c2)c(OC)c1` [KKR11, (E)-3-(3,4-dichlorophenyl)-1-(2-hydroxy-4,6-dimethoxyphenyl)prop-2-en-1-one], at hMAO-A [1], the IC90 is < 100000 nM. Further, the “antiproliferative effect in screen” value with DU145 cells was “top effective”. Also, the “antiproliferative effect in screen” value in the experiment on LNCaP cells [2] is “top five KKRs that kept standing out with antiproliferative effects”. Besides, in the experiment on LNCaP cells [3], the “effect on LNCaP proliferation and cell morphology” value was “dramatically and differently altered cell morphology with a highly significant loss of proliferation”; the viability at 20 µM was determined as 11%. Also, at hMAO-A [4], the “MAO isozyme selectivity” value was “non-selective MAO-I” and the IC50 is 310 ± 30 nM.

Take `O=c1cc(-c2ccccc2)oc2cc(Cl)c(Cl)cc12` [KKR21, 6,7-dichloro-2-phenyl-4H-chromen-4-one]: at hMAO-A [1], the IC90 was < 100000 nM. Besides, the “antiproliferative effect in screen” value with DU145 cells is reported as “no effects on any of the screened PCa cell models”. Besides, the “antiproliferative effect in screen” value with LNCaP cells [2] is listed as “no effects on any of the screened PCa cell models”. Besides, in the experiment with LNCaP cells [3], the “effect on LNCaP proliferation and cell morphology” value is “neither significant effects on LNCaP proliferation nor apparent changes in cell morphology”; the viability at 20 µM turned out to be 94%. Besides, on hMAO-A [4], the “hMAO-A relative selectivity (RSA)” value is reported as > 42105 folds, the “MAO isozyme selectivity” value is “highly selective MAO-AIs” and the IC50 came to 19 nM.

With `O=c1c(O)c(-c2ccccc2)oc2c(Cl)cc(Cl)cc12` [KKR7, 6,8-dichloro-3-hydroxy-2-phenyl-4H-chromen-4-one], the IC90 at hMAO-A [1] was < 100000 nM. Besides, in the experiment on DU145 cells, the “antiproliferative effect in screen” value is recorded as “top effective”. In the experiment with LNCaP cells [3], the “effect on LNCaP proliferation and cell morphology” value was “dramatically and differently altered cell morphology with a highly significant loss of proliferation”; the viability at 20 µM came to 25%. For the same molecule, on hMAO-A [4], the “hMAO-A relative selectivity (RSA)” value is > 42105 folds, the “MAO isozyme selectivity” value is “highly selective MAO-AIs” and the IC50 turned out to be 16000 ± 530 nM.

Consider `COc1cc(OC)c2c(=O)c(O)c(/C=C/c3cc(OC)c(OC)c(OC)c3)oc2c1` [KKR2A, (E)-3-hydroxy-5,7-dimethoxy-2-(3,4,5-trimethoxystyryl)-4H-chromen-4-one], for which, on hMAO-A [1], the IC90 is < 100000 nM. Also, the “antiproliferative effect in screen” value in the experiment with DU145 cells was “no effects on any of the screened PCa cell models”. For the same molecule, the “antiproliferative effect in screen” value in the experiment on LNCaP cells [2] is “no effects on any of the screened PCa cell models”. Also, in the experiment with LNCaP cells [3], the “effect on LNCaP proliferation and cell morphology” value is “neither significant effects on LNCaP proliferation nor apparent changes in cell morphology”; the viability at 20 µM was 96%. In addition, at hMAO-A [4], the “MAO isozyme selectivity” value is “non-selective MAO inhibitory activity” and the IC50 was found to be 1030 ± 40 nM.

In the case of `O=C(/C=C/c1ccccc1)c1cc(Cl)cc(Cl)c1O` [KKR20, (E)-1-(3,5-dichloro-2-hydroxyphenyl)-3-phenylprop-2-en-1-one], on hMAO-A [1], the IC90 was < 100000 nM. Moreover, the “antiproliferative effect in screen” value in the experiment with LNCaP cells [2] was “top five KKRs that kept standing out with antiproliferative effects”. In addition, in the experiment with LNCaP cells [3], the “effect on LNCaP proliferation and cell morphology” value is “dramatically and differently altered cell morphology with a highly significant loss of proliferation”; the viability at 20 µM was 26%. On hMAO-A [4], the “MAO isozyme selectivity” value is listed as “in favor to inhibit MAO-B” and the IC50 is 2940 ± 390 nM.
